Measurements reported in paper PMC3849192, “A Simple Method for Assessing Free Brain/Free Plasma Ratios Using an In Vitro Model of the Blood Brain Barrier” (PLoS ONE, 2013).
Like-named read-outs stand apart in the source and are kept apart here.

Experiments:
[1] = test system: in vitro BBB model (co-culture of bovine brain capillary endothelial cells and rat glial cells); test: In vitro BBB co-culture model, Cu,br/Cu,pl ratio
Experimental: Figure 1 Schematic diagram of the experimental protocol. After 12 days of coculture in cell culture medium, both compartments of the in vitro BBB model consisting of a coculture of brain capillary endothlial cells and rat primary glial cells were filled with Hepes-buffered Ringer’s solution and the compounds dissolved at 2 µM were added in the luminal compartment (i.e donor). The presence of glial cells in the abluminal compartment was used to reproduce the non specific binding to brain tisssue within the brain prenchyma in vivo. After 1 hour, aliquots were taken from both compartments. In vitro Cu,br/Cu,pl at 1 h were calculated by dividing the concentration in the abluminal compartment (∼Cu,br) by the concentration in the luminal compartment (∼Cu,pl) at 1 h. The experimental data at 1 h were computed using the blue-norna steady-state calculator to generate the in vitro steady-state Cu,br/Cu,pl.
One hour after the addition of compounds dissolved at 2 µM in the luminal (i.e upper) compartment, aliquots were taken from both compartments previously filled with Hepes-buffered Ringer’s solution at the beginning of the experiment. […] The concentrations in both compartments of the in vitro assay after 1 h were computed using […] blue-norna.com to generate the in vitro steady-state Cu,br/Cu,pl.
The method of Dehouck et al. was used with minor modifications (Fig. 1). Bovine brain endothelial cells isolated from capillary fragments were cocultured with primary mixed glial cells from newborn Sprague–Dawley rats. The glial cells were isolated according to the method of Booher and Sensenbrenner and cultured for 3 weeks, plated on the bottom of cell culture clusters containing six wells each. The endothelial cells were seeded onto collagen-coated polycarbonate cell culture inserts (4.7 cm^2) (Corning Incorp. NY, USA), which were placed in the wells containing glial cells. The medium used for the coculture was Dulbecco’s modified Eagle’s medium supplemented with 10% calf serum, 10% horse serum, 2 mmol/L glutamine, 50 mg/L gentamicin and 1 µg/L basic fibroblast growth factor (Sigma). The medium was changed every second day. Experiments were usually initiated after 12 days of co-culture.
To monitor the integrity of the endothelial cell monolayer, the marker molecule [^14C] sucrose was added to the solution at a concentration of 0.05 µCi/ml. At the start of the transport experiments, buffered Ringer’s solution (pH = 7.4) was added to wells with glial cells. Inserts with brain endothelial cells were placed in these wells and drug solutions at 2 µM were added to the donor compartment. The plates were incubated for 1 h in a polymix shaker at 37°C with a low shaking velocity. Aliquots were taken from the donor compartment in the beginning and at the end of the experiments. The receiver compartments were sampled at the end of the experiments.
The amount of radiotracer in the abluminal compartment was measured in a liquid scintillation analyser (Packard Instrument Company, Meriden, USA). […] The concentrations of the test compound in all samples were analysed by MS/MS.
The mean free brain/plasma ratios were calculated from three individual experiments. One hour ratios were calculated by dividing the drug concentration in the receiver compartment by the free drug concentration in the donor compartment after 1 h. The experimental data at one hour (i.e concentration in both compartment at the beginning of the experiment and after 1 h) were computed using the blue-norna® steady-state calculator (www.blue-norna.com) to predict the in vivo steady-state Cu,br/Cu,pl ratios. For further details on this calculation method see file S1.
The in vivo steady-state Cu,br/Cu,pl were predicted from the in vitro experimental data collected after one hour according to the following equation: […]
Cdonor, t and Creceiver, t are the concentration of drug in the donor and receiver chambers at time t.

[2] = Fraction unbound brain (fu,br), brain slice method
Experimental: Rats (male Sprague-Dawley) were decapitated under isoflurane anesthesia and the brains were removed carefully and immersed in ice-cold oxygenated physiological buffer at pH7.4. A 6 mm coronal section was cut with a razor and mounted with cyanoacrylate glue onto the tray of the microslicer (DTK-Zero 1 Microslicer, Dosak) after which six to eight 300 µm coronal slices from striatal areas were prepared. […] The compounds were dissolved at 1 µM in the buffer and the solution was incubated with the slice for 5 h.
After 5 h, the brain slices were weighed and homogenized in 9 volumes (w/v) of ECF buffer with a sonicator (SONICS VCX 500 and VCX 130). The slice homogenates in ECF buffer were stored at −20°C prior to analysis. The concentrations of the test compound in the brain slice homogenate and in the ECF buffer was determined by LC-MS/MS.
The unbound volume of distribution Vu,brain, or free fraction fu,brain was calculated according to the following equations: [drawing 1] [drawing 2] where Cslice, CECF and V0 are amount of drug in the slice, the drug concentration in the ECF (representing the drug concentration in the brain ECF, i.e. the free concentration), and the water adhesion of the brain slice. V0 has been estimated using ^14C -inulin in a separate experiment in which brain slices were incubated for 1, 2, and 4 min. V0 was obtained from brain slice uptake – inulin time profile (apparent zero-time intercept).

[3] = Fraction unbound brain (fu,br), brain homogenate equilibrium dialysis
Experimental: The degree of brain binding was assessed by equilibrium dialysis. Brain homogenate (10%) was spiked with test compound at 1 µM in triplicate. […] The plate was then placed in a shaker/incubator to equilibrate for 18 hrs at 37°C. […] After the addition of 50 µl of buffer to the brain homogenate samples, 150 µl of acetonitrile was added to each sample. Finally, 50 µl of water was added to all buffer and brain homogenate samples. The plates were centrifuged and the supernatant analyzed by LC-MS/MS.

[4] = 2 µM in luminal compartment, abluminal/luminal concentration at 1 h
[5] = steady-state ratio computed from 1 h data with the blue-norna steady-state calculator
[6] = rat brain slices 300 µm, 1 µM, 5 h incubation
[7] = brain homogenate (10%), 1 µM, equilibrium dialysis 18 hrs at 37°C

Compound	In vitro Cu,br/Cu,pl Mean 1 h [1, 4]	In vitro Cu,br/Cu,pl Mean steady-state [1, 5]	fubrain (slice) Mean [2, 6]	fubrain (homog.) Mean [3, 7]	In vitro Cu,br/Cu,pl Mean steady-state ([1]; bovine / rat, 2 µM, pH 7.4)	In vitro Cu,br/Cu,pl Mean 1 h ([1]; bovine / rat, 1 h, 2 µM, pH 7.4)	fubrain (slice) Mean ([2]; male, Sprague-Dawley, rat, 5 h, 1 µM)	fubrain (homog.) Mean ([3]; 18 h, 1 µM)	fubrain (slice) Mean ([2]; male, Sprague-Dawley, rat)	fubrain (homog.) Mean [3]
CCN1CCCC1CNC(=O)c1cc(S(N)(=O)=O)ccc1OC (stereo not drawn) [Sulpiride]	0.05	0.09	0.4400	0.6000	–	–	–	–	–	–
CNCCC=C1c2ccccc2CCc2ccccc21 [Nortriptyline]	0.08	0.81	0.0045	0.0046	–	–	–	–	–	–
Nc1nnc(-c2cccc(Cl)c2Cl)c(N)n1 [Lamotrigine]	0.27	0.43	0.3600	0.2000	–	–	–	–	–	–
Nc1c2c(nc3ccccc13)CCCC2 [Tacrine]	–	–	–	–	0.58	0.23	0.1200	0.1200	–	–
Cn1c(=O)c2c(ncn2C)n(C)c1=O [Caffeine]	0.34	0.55	0.7100	0.5000	–	–	–	–	–	–
CSc1ccc2c(c1)N(CCC1CCCCN1C)c1ccccc1S2 (stereo not drawn) [Thioridazine]	0.08	0.68	0.0017	0.0010	–	–	–	–	–	–
CN(C)CCCN1c2ccccc2Sc2ccc(Cl)cc21 [Chlorpromazine]	0.06	0.69	0.0032	0.0008	–	–	–	–	–	–
CNS(=O)(=O)Cc1ccc2[nH]cc(CCN(C)C)c2c1 [Sumatriptan]	0.05	0.05	0.6100	0.4000	–	–	–	–	–	–
CCCC(C)(COC(N)=O)COC(=O)NC(C)C (stereo not drawn) [Carisoprodol]	0.31	0.61	0.5600	0.2020	–	–	–	–	–	–
O=C1NC(=O)C(c2ccccc2)(c2ccccc2)N1 [Phenytoin]	0.22	0.44	0.1200	0.0800	–	–	–	–	–	–
CN1CCN(CCCN2c3ccccc3Sc3ccc(C(F)(F)F)cc32)CC1 [Trifluoperazine]	0.09	0.71	0.0007	0.0007	–	–	–	–	–	–
NCC(CC(=O)O)c1ccc(Cl)cc1 (stereo not drawn) [Baclofen]	0.05	0.06	0.5800	0.5000	–	–	–	–	–	–
OCCOCCN1CCN(C(c2ccccc2)c2ccc(Cl)cc2)CC1 (stereo not drawn) [Hydroxyzine]	0.05	0.47	0.0170	0.0100	–	–	–	–	–	–
O=C(CCCN1CCC(O)(c2ccc(Cl)cc2)CC1)c1ccc(F)cc1 [Haloperidol]	0.09	0.70	0.0140	0.0071	–	–	–	–	–	–
CNCCC(Oc1ccc(C(F)(F)F)cc1)c1ccccc1 (stereo not drawn) [Fluoxetine]	0.10	0.96	0.0027	0.0023	–	–	–	–	–	–
CN(C)CCC=C1c2ccccc2CCc2ccccc21 [Amitriptyline]	0.07	0.59	0.0060	0.0090	–	–	–	–	–	–
Cc1ccc(-c2nc3ccc(C)cn3c2CC(=O)N(C)C)cc1 [Zolpidem]	0.25	0.49	–	–	–	–	–	–	0.3500	0.2000
NC(=O)N1c2ccccc2C=Cc2ccccc21 [Carbamazepine]	0.25	0.31	0.2000	0.1160	–	–	–	–	–	–
NCC1(CC(=O)O)CCCCC1 [Gabapentin]	0.06	0.14	0.2400	0.7820	–	–	–	–	–	–
CC(C)(C)NC(=O)[C@@H]1CN(Cc2cccnc2)CCN1C[C@@H](O)C[C@@H](Cc1ccccc1)C(=O)N[C@H]1c2ccccc2C[C@H]1O [Indinavir]	0.04	0.10	–	–	–	–	–	–	–	–
